Laboratory results reported in ChEMBL document CHEMBL3638654, “5-HT3 receptor modulators, methods of making, and use thereof” (2015).
“And” between values parts separate entries of the source, which are not always exact repeats. Identical values can stand only once.

Biological target: T1, 5-hydroxytryptamine receptor 3A (Homo sapiens, UniProt P46098)
T1 sequence (P46098 whole entry): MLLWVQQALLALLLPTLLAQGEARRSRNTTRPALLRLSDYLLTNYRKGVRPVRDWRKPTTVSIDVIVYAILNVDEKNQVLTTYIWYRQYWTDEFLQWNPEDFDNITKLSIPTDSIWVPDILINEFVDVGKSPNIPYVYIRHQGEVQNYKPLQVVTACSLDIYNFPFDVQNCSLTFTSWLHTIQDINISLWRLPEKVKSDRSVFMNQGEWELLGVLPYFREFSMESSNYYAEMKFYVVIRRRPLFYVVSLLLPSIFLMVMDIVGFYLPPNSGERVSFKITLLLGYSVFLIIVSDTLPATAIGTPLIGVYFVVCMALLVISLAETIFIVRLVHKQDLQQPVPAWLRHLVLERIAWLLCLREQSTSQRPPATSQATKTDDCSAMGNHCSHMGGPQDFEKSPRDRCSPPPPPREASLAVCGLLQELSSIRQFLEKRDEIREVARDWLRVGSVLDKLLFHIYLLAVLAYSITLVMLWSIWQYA
Assay: Radioligand Binding Assay: The relative affinity of the various compounds for the human 5-HT3 receptor was measured in a radioligand binding assay, using a scintillation proximity assay (SPA) format. Test compounds were dissolved to 10 mM in 100% DMSO, then serially diluted at 10x assay concentrations in 100% DMSO in 96-well polypropylene plates and further diluted to 4x assay concentrations with the assay buffer. Samples were incubated in 50 mM Tris-HCl, pH 7.5, 3 mM MgCl2, 1 mM EDTA and 10% DMSO with 10 nM [9-methyl-3H]BRL-43694 (Perkin Elmer), 3 ug of human 5-HT3 receptor membranes (Perkin Elmer) and 0.5 mg/mL SPA beads (WGA PVT, Amersham Biosciences) in a final volume of 0.2 mL. Binding reactions were set up in wells of PicoPlates-96 (Perkin Elmer) by adding consecutively 50 uL of each competing compound or buffer, SPA beads, the radioligand and 5-HT3 receptor membranes. After an overnight incubation at room temperature on a Nutator mixer, plates were centrifuged for 15 min at 1,500 rpm.

Structure (SMILES)	Ki
O=C1c2cccc3[nH]nc(c23)CCN1CC1CN2CCC1CC2 (configuration not stated)	579 nM and 241 nM
O=C1c2cccc3[nH]nc(c23)CN1CC1CN2CCC1CC2 (configuration not stated)	217 nM and 24 nM
